Data from ChEMBL document CHEMBL4418259, “Flavan-3-ol containing foodstuffs” (2012).

Biological target: T1, Taste receptor type 2 member 39 (Homo sapiens) (UniProt P59534)
T1 sequence (whole entry): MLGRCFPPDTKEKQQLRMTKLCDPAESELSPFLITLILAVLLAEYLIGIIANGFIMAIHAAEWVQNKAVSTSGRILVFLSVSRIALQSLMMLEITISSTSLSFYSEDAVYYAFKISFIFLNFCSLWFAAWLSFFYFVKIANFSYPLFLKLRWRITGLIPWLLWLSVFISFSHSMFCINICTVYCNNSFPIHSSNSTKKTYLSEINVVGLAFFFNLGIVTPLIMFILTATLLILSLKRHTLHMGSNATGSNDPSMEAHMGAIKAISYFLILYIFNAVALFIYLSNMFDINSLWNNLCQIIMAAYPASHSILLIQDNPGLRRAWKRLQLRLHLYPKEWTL
Assay: Inhibition of human TAS2R39 expressed in HEK293 cells coexpressing G-protein at 10 mM assessed as reduction in epicatechin gallate-induced intracellular calcium release by Fluo-4-AM dye based fluorescence assay relative to control
Assay type: functional, cell-based

Compound	inhibition [%]
COc1cc(CCC(=O)O)ccc1O	35
O=C(O)CCCc1ccccc1	40
COc1ccc(CCC(=O)O)cc1	40
O=C(O)c1ccc(O)cc1	25
COc1ccc(CCC(=O)O)cc1OC	35
COc1cc(CC(=O)O)cc(OC)c1OC	25
O=C(O)/C=C/c1ccc(O)cc1	40
COc1cc(/C=C/C(=O)O)cc(OC)c1OC	70
COc1ccc(C(=O)O)cc1OC	10
O=C(O)CCc1ccccc1	15
O=C(O)Cc1ccccc1	5
COc1cccc(C(=O)O)c1	5
COc1ccc(CC(=O)O)cc1	15
COc1ccc(C(=O)O)cc1	15
O=C(O)c1cc(O)c(O)c(O)c1	25
COc1ccc(/C=C/C(=O)O)cc1	30
O=C(O)CCc1ccc(O)c(O)c1	30
O=C(O)Cc1ccc(O)cc1	20

Compound	inhibition [%]
COc1ccc(/C=C/C(=O)O)c(OC)c1	40
COc1cccc(C(=O)O)c1O	25
O=C(O)/C=C/c1ccccc1	40
COc1ccccc1C(=O)O	10
COc1ccccc1/C=C/C(=O)O	0
COc1cc(/C=C/C(=O)O)cc(OC)c1O	65
N[C@@H](Cc1ccccc1)C(=O)O	0
O=C(O)Cc1ccc(O)c(O)c1	15
COc1cc(CCC(=O)O)cc(OC)c1OC	35
O=C(O)c1ccccc1	20
COc1cccc(/C=C/C(=O)O)c1	0
COc1cc(/C=C/C(=O)O)cc(OC)c1	20
O=C(O)c1ccc(O)c(O)c1	15
COc1cc(/C=C/C(=O)O)ccc1O	65
COc1cc(C(=O)O)cc(OC)c1OC	20
O=C(O)CCc1ccc(O)cc1	25
O=C(O)/C=C/c1ccc(O)c(O)c1	30
